Test results as given in patent publication US6657052B1, “Biomolecular labeling” (University of Arkansas, priority 1997, dated 2003).

How the values were obtained:
[1] = cited from earlier work; for pKa: H2O, 25° C., Lange's Handbook of Chemistry
[2] = Hydrolysis of kinetically formed trialkylphosphate in the presence of water (1H NMR); assay type: physicochemical
Text: (§1) 3.3 Kinetic favorability of phosphotriester formation over hydrolysis in the presence of water. The reaction of quinone methide 7 and two equivalents of dibenzylphosphoric acid in the presence of excess water (˜200 equivalents for a homogeneous solution) afforded only trialkylphosphate 8 as the product in the equilibrium by 1H NMR analysis. […] Trialkylphosphate 8 is the kinetic product. A similar amount of 8 is produced in the presence of a much higher concentration of water (3,000 equivalents forming a bilayer) at ambient temperature after 30 minutes. […] Hydrolysis to benzyl alcohol appears to be the thermodynamic product^39. Similar results of quinone methides reacting with amino acid derivatives under aqueous conditions have been reported by other researchers^43.
as §1, with “(3)” for “3.3”, “^1H” for “1H”, “product. […]” for “product^39. Similar results of quinone methides reacting with amino acid derivatives under aqueous conditions have been reported by other researchers^43.”

| SMILES | pKa [1] | reported pKa values for various substituted guanidines [1] | other results |
| --- | --- | --- | --- |
| Nc1cccc(O)c1 [3-aminophenol] | 9.83 | – | – |
| CCN(C)CC [Et2MeN] | 10.4 | – | – |
| N=C(N)N [guanidine] | 14.38 | – | – |
| CNC(=N)N [methylguanidine] | 14.1 | 14.1 | – |
| N=C(N)Nc1ccccc1 [phenylguanidine] | – | 10.8 | – |
| Cc1cc(COP(=O)(OCc2ccccc2)OCc2ccccc2)cc(C)c1O [trialkylphosphate 8] | – | – | hydrolysis to benzyl alcohol ([2]; 3,000 equivalents water forming a bilayer, ambient temperature, after 18 hours): complete conversion to benzyl alcohol; hydrolysis to benzyl alcohol ([2]; excess water (~200 equivalents, homogeneous solution), 18 hours at ambient temperature): Minor amounts of the benzyl alcohol hydrolysis product |
